Results from patent publication US8629169B2, “4-substituted-3-phenylsulfanylmethyl-bicyclo[3.1.0]hexane compounds as mGluR 2/3 antagonists” (Eli Lilly and Company, priority 2010, dated 2014).

Assays:
male NIH-Swiss mice = assay: Forced-swim test in mice (mFST); assay type: in vivo, mouse; details: for ED60 (mg/kg): immobility, last 4 min of 6 min; for Maximal Decrease (1 − compound/control) * 100%: immobilization time
mice = assay: mFST alone and in combination with SSRI; assay type: in vivo, mouse; details: Example 12 10 mg/kg p.o.
hERG channel = hERG channel (Homo sapiens, UniProt Q12809); assay: Off-target activity, known assay methods, hERG
hERG channel, sequence (Q12809 whole entry): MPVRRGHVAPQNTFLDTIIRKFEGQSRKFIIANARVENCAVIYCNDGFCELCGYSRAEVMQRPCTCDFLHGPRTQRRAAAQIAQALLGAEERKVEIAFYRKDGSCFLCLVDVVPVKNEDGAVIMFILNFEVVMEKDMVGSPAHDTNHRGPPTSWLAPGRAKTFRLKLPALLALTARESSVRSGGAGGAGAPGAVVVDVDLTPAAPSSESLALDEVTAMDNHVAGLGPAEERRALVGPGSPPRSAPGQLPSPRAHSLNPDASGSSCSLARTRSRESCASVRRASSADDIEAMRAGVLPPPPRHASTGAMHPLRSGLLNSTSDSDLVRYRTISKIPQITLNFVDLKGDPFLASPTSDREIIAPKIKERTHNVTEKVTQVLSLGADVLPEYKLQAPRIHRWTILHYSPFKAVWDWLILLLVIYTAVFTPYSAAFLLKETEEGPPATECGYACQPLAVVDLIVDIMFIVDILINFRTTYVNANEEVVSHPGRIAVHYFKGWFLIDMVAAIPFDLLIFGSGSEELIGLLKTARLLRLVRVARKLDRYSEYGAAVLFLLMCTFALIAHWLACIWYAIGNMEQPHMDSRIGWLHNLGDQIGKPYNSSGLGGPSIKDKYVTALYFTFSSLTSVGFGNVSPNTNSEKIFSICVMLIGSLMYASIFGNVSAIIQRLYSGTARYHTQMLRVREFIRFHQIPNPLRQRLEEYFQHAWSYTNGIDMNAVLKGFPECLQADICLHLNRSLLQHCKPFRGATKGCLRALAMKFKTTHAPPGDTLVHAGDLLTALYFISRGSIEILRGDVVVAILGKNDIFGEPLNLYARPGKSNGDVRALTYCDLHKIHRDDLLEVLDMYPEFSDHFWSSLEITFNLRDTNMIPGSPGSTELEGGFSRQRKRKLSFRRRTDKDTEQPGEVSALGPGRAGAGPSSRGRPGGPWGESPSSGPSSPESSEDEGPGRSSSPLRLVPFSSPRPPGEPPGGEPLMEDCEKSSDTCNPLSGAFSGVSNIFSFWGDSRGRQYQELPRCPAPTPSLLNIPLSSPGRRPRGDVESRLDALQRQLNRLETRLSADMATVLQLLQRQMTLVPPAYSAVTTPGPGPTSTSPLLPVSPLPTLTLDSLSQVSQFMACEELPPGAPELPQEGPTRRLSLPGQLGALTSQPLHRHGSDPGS

human mGlu5 receptor = target: T1, human mGlu5 receptor (Homo sapiens, UniProt P41594); assay: FLIPR calcium antagonist assay for mGlu receptor selectivity, mGlu5; assay type: cell-based; details: inhibition of EC90 glutamate response, read-out: mGlu5 % inhib. @12.5 μM
T1 construct: expressed in transfected cells; host or cells: AV12 cells co-expressing rat EAAT1
T1 sequence (P41594 21-1212): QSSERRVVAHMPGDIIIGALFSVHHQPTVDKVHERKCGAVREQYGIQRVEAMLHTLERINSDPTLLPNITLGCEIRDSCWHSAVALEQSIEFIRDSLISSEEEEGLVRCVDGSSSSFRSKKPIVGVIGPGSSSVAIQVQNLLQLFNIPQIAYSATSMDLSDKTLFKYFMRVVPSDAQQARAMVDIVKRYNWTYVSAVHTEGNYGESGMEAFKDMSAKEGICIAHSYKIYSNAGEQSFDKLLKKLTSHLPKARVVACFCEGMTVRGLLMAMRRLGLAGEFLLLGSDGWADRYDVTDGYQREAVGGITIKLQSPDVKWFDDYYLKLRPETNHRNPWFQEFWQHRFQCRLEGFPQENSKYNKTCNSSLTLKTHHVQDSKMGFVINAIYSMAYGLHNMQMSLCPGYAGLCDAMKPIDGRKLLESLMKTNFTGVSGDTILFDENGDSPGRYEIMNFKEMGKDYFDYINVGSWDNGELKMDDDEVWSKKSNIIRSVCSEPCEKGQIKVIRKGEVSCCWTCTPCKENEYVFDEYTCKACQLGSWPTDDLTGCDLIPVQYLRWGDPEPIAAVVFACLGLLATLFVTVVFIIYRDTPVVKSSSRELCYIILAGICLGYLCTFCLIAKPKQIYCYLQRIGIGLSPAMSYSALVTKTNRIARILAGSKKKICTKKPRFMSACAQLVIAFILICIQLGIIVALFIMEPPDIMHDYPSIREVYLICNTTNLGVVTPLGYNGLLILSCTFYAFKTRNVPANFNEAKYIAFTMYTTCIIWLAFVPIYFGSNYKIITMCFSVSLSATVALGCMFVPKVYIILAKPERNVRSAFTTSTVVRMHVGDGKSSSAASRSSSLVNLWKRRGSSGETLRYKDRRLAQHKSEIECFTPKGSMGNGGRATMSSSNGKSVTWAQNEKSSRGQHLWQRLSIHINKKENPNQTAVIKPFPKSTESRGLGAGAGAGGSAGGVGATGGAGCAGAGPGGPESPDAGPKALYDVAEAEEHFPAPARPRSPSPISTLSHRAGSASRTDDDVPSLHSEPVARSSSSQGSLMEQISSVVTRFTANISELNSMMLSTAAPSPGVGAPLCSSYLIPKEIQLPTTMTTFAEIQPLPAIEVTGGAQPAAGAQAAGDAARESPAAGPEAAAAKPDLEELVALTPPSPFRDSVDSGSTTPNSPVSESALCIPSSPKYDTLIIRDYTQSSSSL
Description: (§1) The relative antagonist potencies of the compounds of the invention for the other human mGlu receptors can be assessed with either a cAMP assay or fluorometric calcium response assay (see for example Fell et al., JPET (in press)). Briefly, individual AV12 cell lines containing the rat EAAT1 glutamate transporter and stably expressing the human mGlu1, 2, 3, 4, 5, 6, & 8 receptors are used for these studies. The mGlu1 and 5 receptors are Gq-coupled, so they naturally signal through phospholipase C, producing a calcium flux response which can be used to measure receptor activation using a Fluorometric Imaging Plate Reader (FLIPR, Molecular Devices). […]
(§2) Intracellular calcium levels are monitored using FLIPR before and after the addition of test compounds and Fluo-3 AM (Invitrogen) or Calcium 4 (Molecular Devices) dye, depending on the cell line. […] The results are analyzed using GraphPad Prism v4.03 to calculate the concentrations of glutamate needed to induce the EC90 (antagonist assay) and EC10 (potentiator assay) responses.
(§3) Compounds are tested at each mGlu receptor in a two-addition FLIPR assay using a 10-point concentration response profile starting at a final concentration of 25 μM for the agonist assay and 12.5 μM for the potentiator and antagonist assays. […] Agonist effects are quantified as percent stimulation induced by compound alone relative to the maximal glutamate response. […]

human mGlu8 receptor = target: T2, human mGlu8 receptor (Homo sapiens, UniProt O00222); assay: FLIPR calcium antagonist assay for mGlu receptor selectivity, mGlu8; assay type: cell-based
T2 construct: expressed in transfected cells; host or cells: AV12 cells co-expressing rat EAAT1 and Galpha15
T2 sequence (O00222 34-908): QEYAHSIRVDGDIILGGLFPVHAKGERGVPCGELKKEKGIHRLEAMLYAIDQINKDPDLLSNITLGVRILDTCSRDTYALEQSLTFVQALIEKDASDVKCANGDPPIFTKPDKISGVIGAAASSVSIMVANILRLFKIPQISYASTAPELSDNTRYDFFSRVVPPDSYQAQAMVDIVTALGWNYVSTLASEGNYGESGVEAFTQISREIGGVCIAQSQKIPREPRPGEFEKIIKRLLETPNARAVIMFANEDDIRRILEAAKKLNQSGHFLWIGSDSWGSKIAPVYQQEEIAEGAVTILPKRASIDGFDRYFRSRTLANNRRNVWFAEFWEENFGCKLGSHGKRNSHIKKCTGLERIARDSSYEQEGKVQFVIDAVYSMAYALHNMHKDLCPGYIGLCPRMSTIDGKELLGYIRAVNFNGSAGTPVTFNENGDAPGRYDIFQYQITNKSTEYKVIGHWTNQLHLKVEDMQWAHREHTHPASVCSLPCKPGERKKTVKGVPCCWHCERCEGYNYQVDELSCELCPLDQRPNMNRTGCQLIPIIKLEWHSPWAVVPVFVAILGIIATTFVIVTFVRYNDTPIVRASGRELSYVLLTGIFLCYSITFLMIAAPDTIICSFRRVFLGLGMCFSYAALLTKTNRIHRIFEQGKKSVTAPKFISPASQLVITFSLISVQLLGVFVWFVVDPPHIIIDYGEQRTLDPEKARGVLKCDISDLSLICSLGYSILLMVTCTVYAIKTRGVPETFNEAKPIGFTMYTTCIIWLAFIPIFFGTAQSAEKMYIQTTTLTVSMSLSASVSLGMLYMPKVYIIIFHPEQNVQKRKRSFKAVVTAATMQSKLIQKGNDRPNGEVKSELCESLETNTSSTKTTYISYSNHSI
Description: (§4) The relative antagonist potencies of the compounds of the invention for the other human mGlu receptors can be assessed with either a cAMP assay or fluorometric calcium response assay (see for example Fell et al., JPET (in press)). Briefly, individual AV12 cell lines containing the rat EAAT1 glutamate transporter and stably expressing the human mGlu1, 2, 3, 4, 5, 6, & 8 receptors are used for these studies. The mGlu1 and 5 receptors are Gq-coupled, so they naturally signal through phospholipase C, producing a calcium flux response which can be used to measure receptor activation using a Fluorometric Imaging Plate Reader (FLIPR, Molecular Devices). The cell lines expressing the mGlu2, 3, 4, and 8 receptor are designed to express the Gα15 subunit so that these Gi-coupled receptors will generate a calcium flux response similar to the mGlu1 and 5 receptor expressing cell lines. The mGlu6 receptor is tested in a cAMP format using methods analogous to those developed for mGlu2 and mGlu3 above. These cell lines are maintained as previously described except that amounts of L-glutamine and selection agents (geneticin, hygromycin B, zeocin, and blasticidin) may vary depending on the cell line. Confluent cultures are passaged biweekly.
Intracellular calcium levels are monitored using FLIPR before and after the addition of test compounds and Fluo-3 AM (Invitrogen) or Calcium 4 (Molecular Devices) dye, depending on the cell line. Cells are plated 24 hours prior to assay in a variable concentration of glutamine and a variable density of cells per well, depending on the cell line. The medium is removed and the cells are incubated with 8 μM of dye (50 μl per well) for 90 or 120 minutes (depending on cell line) at 25° C. […] The results are analyzed using GraphPad Prism v4.03 to calculate the concentrations of glutamate needed to induce the EC90 (antagonist assay) and EC10 (potentiator assay) responses.
Compounds are tested at each mGlu receptor in a two-addition FLIPR assay using a 10-point concentration response profile starting at a final concentration of 25 μM for the agonist assay and 12.5 μM for the potentiator and antagonist assays. […] Agonist effects are quantified as percent stimulation induced by compound alone relative to the maximal glutamate response. Antagonist effects are quantified by calculating the percent inhibition of the EC90 glutamate response caused by the compound. Potentiation effects are quantified as percent increase in the presence of an EC10 response in glutamate relative to the ECmax response. All data are calculated as relative IC50 or EC50 values using a four-parameter logistic curve fitting program (ActivityBase v5.3.1.22).

iGluR5 = iGluR5 (Homo sapiens, UniProt P39086); assay: Off-target activity, known assay methods, iGluR5
human mGlu1 receptor = target: T3, human mGlu1 receptor (Homo sapiens, UniProt Q13255); assay: FLIPR calcium antagonist assay for mGlu receptor selectivity, mGlu1; assay type: cell-based; details: inhibition of EC90 glutamate response, read-out: mGlu1 % inhib. @12.5 μM
T3 construct: expressed in transfected cells; host or cells: AV12 cells co-expressing rat EAAT1
Description: as §1, §2, §3

[1] = system: mGlu2+/+ and mGlu2−/− mice; assay: mFST in mGlu2 knock-out mice and +/+ littermates; details: 10 mg/kg, i.p., 30 min prior
Method: Briefly, male NIH-Swiss mice (Harlan Sprague-Dawley, Indianapolis, Ind.) weighing between 25-30 g are used. Group housed animals are removed from the vivarium to the testing area in their own cages and allowed to adapt to the new environment for at least 1 hour before testing. […] Mice are placed in a cylinder (diameter: 10 cm; height: 25 cm) filled with 6 cm of water (22-25° C.) for 6 min. The duration of immobility during the last 4 min. of the 6 min. period of the test was scored. A mouse is recorded as immobile when floating motionless or making only those movements necessary to keep its head above water.
In other experiments, mice with receptor deletions (mGlu2 knock-out mice) are studied; these mice are bred by heterozygote×heterozygote breeding and used as littermates for −/− and +/+ mouse comparisons (Taconic Farms).

[2] = system: wild type, mGlu2(−/−), mGlu3(−/−) and double knockout mice; assay: Wakefulness in mGlu2 and/or mGlu3 receptor deletion mice; assay type: in vivo, mouse; details: 10 mg/kg, i.p.
Description: Additionally, in three separate experiments, mice with single mGlu2(−/−), single mGlu3(−/−), or double mGlu2(−/−) mGlu3(−/−) receptor deletions are studied.

human mGlu4 receptor = target: T4, human mGlu4 receptor (Homo sapiens, UniProt Q14833); assay: FLIPR calcium antagonist assay for mGlu receptor selectivity, mGlu4; assay type: cell-based; details: inhibition of EC90 glutamate response, read-out: mGlu4 % inhib. @12.5 μM
T4 construct: expressed in transfected cells; host or cells: AV12 cells co-expressing rat EAAT1 and Galpha15
T4 sequence (Q14833 33-912): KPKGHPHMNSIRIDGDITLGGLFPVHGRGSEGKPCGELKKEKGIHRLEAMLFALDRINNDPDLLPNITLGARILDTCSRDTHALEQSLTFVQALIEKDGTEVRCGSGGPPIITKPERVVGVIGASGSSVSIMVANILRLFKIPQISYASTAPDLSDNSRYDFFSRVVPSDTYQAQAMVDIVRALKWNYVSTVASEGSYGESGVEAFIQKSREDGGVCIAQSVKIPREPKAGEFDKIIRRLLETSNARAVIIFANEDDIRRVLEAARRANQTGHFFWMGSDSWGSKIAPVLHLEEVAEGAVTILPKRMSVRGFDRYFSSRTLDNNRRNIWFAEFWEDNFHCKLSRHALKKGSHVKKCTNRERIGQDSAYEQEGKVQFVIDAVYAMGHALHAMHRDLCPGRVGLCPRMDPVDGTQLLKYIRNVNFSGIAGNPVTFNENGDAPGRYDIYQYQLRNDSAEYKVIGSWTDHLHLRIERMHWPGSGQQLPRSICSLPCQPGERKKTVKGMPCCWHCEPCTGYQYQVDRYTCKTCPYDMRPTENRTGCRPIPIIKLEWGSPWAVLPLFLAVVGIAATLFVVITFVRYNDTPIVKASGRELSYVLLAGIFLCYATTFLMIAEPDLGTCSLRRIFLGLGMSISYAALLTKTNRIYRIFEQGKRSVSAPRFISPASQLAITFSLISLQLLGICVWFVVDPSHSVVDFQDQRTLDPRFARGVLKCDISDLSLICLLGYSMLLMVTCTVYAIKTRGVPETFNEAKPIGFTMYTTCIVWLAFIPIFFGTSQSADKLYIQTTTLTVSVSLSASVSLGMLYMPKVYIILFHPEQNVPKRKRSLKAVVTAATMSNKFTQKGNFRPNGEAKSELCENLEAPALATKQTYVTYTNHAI
Description: as §1, §2, §3

human mGlu3 receptor = target: T5, human mGlu3 receptor (Homo sapiens, UniProt Q14832); assay: mGlu3 receptor cAMP antagonist assay; assay type: cell-based; details: reversal of DCG IV (EC90) inhibition of forskolin-stimulated cAMP; relative IC50
T5 construct: expressed in transfected cells; host or cells: AV12 cells co-expressing rat EAAT1
Method: Antagonist activity is assayed in recombinant AV12 cells stably expressing human mGlu2 or mGlu3 receptors and the rat glutamate transporter EAAT1 (Excitatory Amino Acid Transporter 1). The cell lines are maintained by culturing in DMEM with high glucose and pyridoxine hydrochloride supplemented with 5% dialyzed fetal bovine serum (FBS), 1 mM sodium pyruvate, 1 mM HEPES and 1 mM L-glutamine; geneticin and hygromycin B are used as selection antibiotics.
Reversal of the inhibition of forskolin-stimulated cAMP production by test compounds is measured using homogeneous time resolved fluorescence technology (HTRF; Cisbio cat #62AM4PEB). The medium is removed and the cells are incubated with 100 μl cAMP stimulation buffer (STIM) for 30 minutes at 37° C. […] Cells are incubated at 37° C. for 20 minutes. To measure the cAMP levels, cAMP-d2 conjugate and anti cAMP-cryptate conjugate in lysis buffer are incubated with the treated cells at room temperature for 1 hour (mGlu2) or 1.5 hour (mGlu3). […] The raw data are converted to cAMP amount (pmole/well) using a cAMP standard curve generated for each experiment. Relative IC50 values are calculated from the top-bottom range of the concentration response curve using a four-parameter logistic curve fitting program (ActivityBase v5.3.1.22).

M2 muscarinic receptor = target: T6, M2 muscarinic receptor (Homo sapiens, UniProt P08172); assay: Off-target activity, known assay methods, M2
T6 sequence (P08172 1-466): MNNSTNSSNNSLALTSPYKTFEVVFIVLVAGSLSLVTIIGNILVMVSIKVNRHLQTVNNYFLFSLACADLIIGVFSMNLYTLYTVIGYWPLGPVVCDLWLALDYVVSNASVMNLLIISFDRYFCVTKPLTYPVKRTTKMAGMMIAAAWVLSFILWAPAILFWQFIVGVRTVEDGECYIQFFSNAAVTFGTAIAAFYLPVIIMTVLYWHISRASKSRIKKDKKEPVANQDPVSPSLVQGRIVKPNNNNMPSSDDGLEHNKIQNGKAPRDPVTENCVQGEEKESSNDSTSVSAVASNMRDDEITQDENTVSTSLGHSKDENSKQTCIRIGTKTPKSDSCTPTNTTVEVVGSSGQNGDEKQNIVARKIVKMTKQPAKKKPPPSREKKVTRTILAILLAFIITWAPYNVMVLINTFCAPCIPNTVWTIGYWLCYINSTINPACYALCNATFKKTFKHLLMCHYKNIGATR

human mGlu6 receptor = target: T7, human mGlu6 receptor (Homo sapiens, UniProt O15303); assay: mGlu6 cAMP antagonist assay (reference agonist L-AP4); assay type: cell-based; details: cAMP format
T7 construct: expressed in transfected cells; host or cells: AV12 cells co-expressing rat EAAT1
Description: as §4, with “These cell lines are maintained as previously described except that amounts of L-glutamine and selection agents (geneticin, hygromycin B, zeocin, and blasticidin) may vary depending on the cell line. Confluent cultures are passaged biweekly.” left out
Antagonist activity in mGlu6 cells is measured using cAMP in a method analogous to that described above for mGlu2 and mGlu3 activity, except that the reference agonist was L-AP4 (Tocris). […] Relative IC50 and EC50 values are calculated from the top-bottom range of the concentration response curve using a four-parameter logistic curve fitting program (ActivityBase v5.3.1.22).

[3] = target: 5-HT2B serotonin receptor (Homo sapiens, UniProt P41595); assay: Off-target activity, known assay methods, 5-HT2B
5-HT2B serotonin receptor, sequence (P41595 whole entry): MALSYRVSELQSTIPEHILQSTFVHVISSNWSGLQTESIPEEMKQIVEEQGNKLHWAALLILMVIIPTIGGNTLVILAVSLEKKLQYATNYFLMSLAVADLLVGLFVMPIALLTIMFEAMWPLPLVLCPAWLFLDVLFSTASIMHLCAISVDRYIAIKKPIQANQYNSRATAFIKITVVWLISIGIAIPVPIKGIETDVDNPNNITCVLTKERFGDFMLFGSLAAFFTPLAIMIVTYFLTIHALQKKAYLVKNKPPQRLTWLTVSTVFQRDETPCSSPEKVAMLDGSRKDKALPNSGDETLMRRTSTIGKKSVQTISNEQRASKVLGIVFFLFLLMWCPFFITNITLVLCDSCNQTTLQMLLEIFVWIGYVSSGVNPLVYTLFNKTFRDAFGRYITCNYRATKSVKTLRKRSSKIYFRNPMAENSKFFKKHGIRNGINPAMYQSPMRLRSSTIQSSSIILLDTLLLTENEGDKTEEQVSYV

[4] = target: 5-HT2A serotonin receptor (Homo sapiens, UniProt P28223); assay: Off-target activity, known assay methods, 5-HT2A
5-HT2A serotonin receptor, sequence (P28223 whole entry): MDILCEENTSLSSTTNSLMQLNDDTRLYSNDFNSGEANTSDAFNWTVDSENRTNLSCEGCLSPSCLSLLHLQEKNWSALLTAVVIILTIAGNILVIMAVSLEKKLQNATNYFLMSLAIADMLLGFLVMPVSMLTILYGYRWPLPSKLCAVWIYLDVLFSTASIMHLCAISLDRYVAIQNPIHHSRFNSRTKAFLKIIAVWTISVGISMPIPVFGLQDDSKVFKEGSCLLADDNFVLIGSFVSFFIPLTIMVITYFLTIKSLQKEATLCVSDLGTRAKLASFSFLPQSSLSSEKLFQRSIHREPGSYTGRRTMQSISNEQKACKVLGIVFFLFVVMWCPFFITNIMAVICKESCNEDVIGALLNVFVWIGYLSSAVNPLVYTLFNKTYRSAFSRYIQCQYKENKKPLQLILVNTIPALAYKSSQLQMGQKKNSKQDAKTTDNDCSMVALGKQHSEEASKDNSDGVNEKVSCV

[5] = fluoxetine experiment, fluoxetine 10 mg/kg i.p.
[6] = citalopram experiment, citalopram 1 mg/kg i.p.

Which results are given for `CC(C)OC(=O)OCOC(=O)[C@H]1[C@@H]2[C@H](O)[C@@H](CSc3ccc(F)c(Cl)c3)[C@@](N)(C(=O)OCOC(=O)OC(C)C)[C@H]12.Cl` [Example 22, Bis({[(1-methylethoxy)carbonyl]oxy}methyl) (1S,2R,3S,4S,5R,6R)-2-amino-3-{[(3-chloro-4-fluorophenyl)sulfanyl]methyl}-4-hydroxybicyclo[3.1.0]hexane-2,6-dicarboxylate hydrochloride]?
ED60 (mg/kg) (male NIH-Swiss mice; p.o.): 20.5 (p.o.) mg/kg; Maximal Decrease (1 − compound/control) * 100% (male NIH-Swiss mice; p.o.): 50.1%

What does the source list for `CNCCC(Oc1ccc(C(F)(F)F)cc1)c1ccccc1` (stereo not shown) [Fluoxetine, fluoxetine, reference compound]?
Immobilization Time (mice; [5]): 118 s; Maximal Decrease (1 − compound/control) * 100% (mice; [5]): 31.5%

`CN(C)CCCC1(c2ccc(F)cc2)OCc2cc(C#N)ccc21` (stereo not shown) [Citalopram, citalopram, reference compound] was tested. Which “Immobilization Time” value (mice; [6]) did it give?
The value was 102 s.

What about the “Maximal Decrease (1 − compound/control) * 100%” value (mice; [6]) of the same compound?
The value was 42.1%.

What does the source list for `Cl.N[C@]1(C(=O)O)[C@@H]2[C@@H](C(=O)O)[C@@H]2[C@H](O)[C@H]1CSc1ccc(F)c(F)c1` [Example 1, (1S,2R,3S,4S,5R,6R)-2-Amino-3-{[(3,4-difluorophenyl)sulfanyl]methyl}-4-hydroxybicyclo[3.1.0]hexane-2,6-dicarboxylic acid hydrochloride]?
activity at the hERG channel (hERG channel): no appreciable activity; ED60 (mg/kg) (male NIH-Swiss mice; i.p.): 8.0 (i.p.) mg/kg; Maximal Decrease (1 − compound/control) * 100% (male NIH-Swiss mice; i.p.): 36.1%; inhibition at 12.5 µM (human mGlu5 receptor): -2%; inhibition at 12.5 µM (human mGlu8 receptor; 12.5 μM, inhibition of EC90 glutamate response, read-out: mGlu8 % inhib. @12.5 μM): 47%; IC50 (human mGlu8 receptor; FLIPR antagonist, in brackets under % inhib.): 4970 nM; activity at iGluR5 (iGluR5): no appreciable activity; inhibition at 12.5 µM (human mGlu1 receptor): 6.3%; immobility time in mGlu2+/+ mice [1]: significantly decrease immobility time; wakefulness in double knockout mGlu2(−/−) mGlu3(−/−) mice ([2]; double knockout): not significantly increase wakefulness; wakefulness in single knockout mGlu2(−/−) mice ([2]; mGlu2(−/−), though at a reduced level): significantly increase wakefulness; wakefulness in single knockout mGlu3(−/−) mice ([2]; mGlu3(−/−), though at a reduced level): significantly increase wakefulness; wakefulness in wild type mice ([2]; wild type): significantly increase wakefulness; inhibition at 12.5 µM (human mGlu4 receptor): 17.9%; IC50 (human mGlu3 receptor): 6.2 ± 2.2 nM; activity at muscarinic receptor M2 (M2 muscarinic receptor): no appreciable activity; IC50 (human mGlu6 receptor): 1720 nM; activity at serotonin receptor 5-HT2B [3]: no appreciable activity; activity at serotonin receptor 5-HT2A [4]: no appreciable activity
